US20030040515A1, “Regulation of platelet adhesion and aggregation” (priority 2002, published 2003)
Where two headings read alike, the source gives them in different places. Non-standard residues stand in square brackets, D forms with d. Residues, ends and D or L forms follow the SMILES beside them. *: point of attachment. Sta = CC(C)C[C@H](N)[C@@H](O)CC(=O)O; Isovaleryl = CC(C)CC(=O)*

What was measured:
[1] = system: vWF depolymerizing activity of BAECcm; assay: Inhibitor profile of the vWF depolymerizing activity of BAEC conditioned medium; type: biochemical
vWF = biological target: T1, vWF (Homo sapiens, UniProt P04275); assay: Reduction in average multimer size of vWF in TTP plasma (agarose gel, collagen binding/vWF antigen); type: biochemical; conditions: chelation of Ca2+
T1 construct: from tissue; host or cells: plasma of a TTP patient (vWF); human platelet concentrates (TSP-1)
Description: TTP plasma was incubated with 20 mM Hepes, 0.14M NaCl, 1 mM CaCl2, 1 mM MgCl2, pH 7.4 buffer, conditioned media of HMEC-1 cells or the Hepes buffer containing TSP-1 for 1 or 24 hours at 37° C. Aliquots of the reactions were diluted 10-fold in the Hepes buffer and assayed for collagen binding affinity and vWF antigen as described by Favaloro et al. (1991). On some occasions, aliquots of the reactions were resolved on 1% agarose gel electrophoresis (Ruggeri and Zimmerman, 1980), transferred to PVDF membrane (DuPont NEN, Boston, Mass.), blotted with 2 μg per ml of horse radish peroxidase conjugated anti-vWF polyclonal antibodies (DAKO Corporation, Carpinteria, Calif.) and visualized using chemiluminescence (DuPont NEN, Boston, Mass.).
TSP-1 is a major component of platelet α-granules which is secreted upon platelet activation and aggregation. TSP-1 was purified to homogeneity from pooled outdated human platelet concentrates (Murphy-Ullrich and Mosher. 1985; Hogg et al., 1997) and tested for vWF reductase activity. Buffers containing 0.1 mM CaCl2 were used throughout the chromatographic purification of TSP1. […] In particular, the very large multimers were lost (see bracket in FIG. 3A). […] TSP-1-mediated reduction in vWF multimer size was concentration- and time-dependent (FIG. 3B). Three different preparations of platelet TSP-1 had the same vWF reducing activity (not shown). It is noteworthy that the molar ratio of TSP-1 to vWF influenced the extent of reduction in vWF multimer size (FIG. 3B). The vWF reductase activity in endothelial cell conditioned medium is inhibited by EDTA. In accordance with this observation, chelation of Ca^2+ with EDTA ablated the vWF reductase activity of TSP-1 (not shown).

purified vWF [2] = biological target: T2, purified vWF (Homo sapiens, UniProt P04275); assay: MPB labelling assay for reduction of vWF disulfide bond(s) / formation of new thiols in vWF; type: biochemical; parameters: Purified vWF from human plasma was obtained from the Baker Medical Research Institute; tissue Baker Medical Research Institute, Melbourne (vWF); host or cells: human plasma (vWF); human platelet concentrates (TSP-1); conditions: chelation of Ca2+ in the reactions
Description: The biotin-linked maleimide, MPB, was used to measure reduction of vWF disulfide bond(s) in BAECcm. […] Free thiol(s) formed in vWF by reduction of disulfide bonds bond(s) were labelled with MPB (100 μM) and the unreacted MPB was quenched with GSH (200 μM). N-ethylmaleimide reacts rapidly with free thiols with a second order rate constant of ˜10^4 M^−1s^−1 at pH 8 (Torchinski and Dixon, 1974). Therefore, the half life for reaction of free thiols in vWF with the maleimide moiety of MPB was anticipated to be in the order of a few seconds. Aliquots of the reactions containing MPB-labelled vWF were incubated in ELISA plate wells coated with anti-vWF polyclonal antibodies. The adsorbed vWF was incubated with streptavidin peroxidase to measure the incorporated MPB. The control for vWF labelling was incubation and labelling of BAECcm alone, prior to addition of vWF. This reaction represented the contribution to the assay of MPB labelling of endogenous vWF and/or other vWF binding proteins in the BAECcm. […]
Reduction of disulfide bonds in vWF was anticipated to result in a net increase in free thiols in the vWF population. […] The MPB-labeled vWF was incubated in ELISA plate wells coated with anti-human vWF polyclonal antibodies and the biotin label was detected using StreptABComplex/HRP (DAKO Corporation, Carpinteria, Calif.).

purified vWF [3] = biological target: T2, purified vWF; assay: Effect of purified reductants on affinity of purified vWF for collagen; type: biochemical; conditions: 24 hours at 37° C.; for effect on vWF collagen affinity: PDI at 10 nM
Description: Confluent HUVEC's were washed with M199 without FCS and incubated in M199 for up to 8.5 hours. The HUVECS were stimulated to release vWF by adding […] human α-thrombin after 0.5 hours. The thrombin was quenched after 2 hours incubation by adding 5 mM D-Phe-Pro-Arg-chloromethyl ketone. Samples of the conditioned medium were collected at discrete time intervals and analyzed for vWF by 1% agarose gel electrophoresis and Western blotting or vWF antigen levels and collagen binding affinity (not shown). vWF antigen levels were determined using ELISA by capturing the vWF with adsorbed anti-vWF polyclonal antibodies and detecting using peroxidase conjugated anti-vWF polyclonal antibodies (Favoloro et al., 1991). Collagen binding affinity was assessed by incubating the vWF in plastic wells coated with type I/III collagen for 1 hour and measuring the bound vWF using peroxidase conjugated anti-vWF antibodies (Favoloro et al., 1991). Large vWF multimers bind to collagen with up to ˜100-fold higher affinity than smaller multimers, therefore affinity for collagen is a useful indicator of average vWF multimer size.
The effect of incubation of purified vWF with GSH, PDI, or GSH and PDI, for 24 hours at 37° C. on the affinity of vWF for collagen was analysed. […] The half-maximal effect of GSH on vWF collagen affinity was ˜20 μM. […] The half-maximal effect of GSH in the presence on PDI on vWF collagen affinity was similar to that of GSH alone, ˜20 μM.

plasma vWF = plasma vWF (Homo sapiens, UniProt P04275); conditions: GSH 20 μM added to BAECcm
Description: To test whether exogenous GSH could augment vWF depolymerization by BAECcm, plasma vWF was incubated with BAECcm, or BAECcm and GSH (20 μM), and multimer size measured by either agarose gel electrophoresis or collagen binding.

purified vWF [4] = biological target: T2, purified vWF; assay: Effect of purified reductants or thiol reagents on the average multimer size of purified vWF (agarose gel electrophoresis); type: biochemical; parameters: Purified vWF from human plasma was obtained from the Baker Medical Research Institute; tissue Baker Medical Research Institute, Melbourne; host or cells: human plasma; conditions: for effect on average multimer size of purified vWF: GSH 20 μM, PDI 10 nM, thioredoxin 10 nM, 24 hours at 37° C.
[5] = measured by agarose gel electrophoresis or collagen binding, BAECcm treated with agent

Q: With NCCc1ccc(S(=O)(=O)F)cc1 [4-(2-aminoethyl)benzenesulfonylfluoride] as the compound, how does the “effect on vWF depolymerizing activity of BAECcm” value (“effect … of BAECcm” below) [1, 5] read?
A: Its value is “not inhibited”.

Q: CC(C)C[C@H](NC(=O)[C@H]1O[C@@H]1C(=O)O)C(=O)NCCCCN=C(N)N [E-64] was tested. Which “effect … of BAECcm” value [1, 5] did it give?
A: Its value is “inactivated”.

Q: O=C(O)CN(CCN(CC(=O)O)CC(=O)O)CC(=O)O [EDTA] was tested. Which “effect … of BAECcm” value [1] did it give?
A: Its value is “ablated activity”.

Q: What about the “effect on vWF reductase activity of TSP-1” value (vWF) of the same compound?
A: The value was “ablated”.

Q: And the “effect on TSP-1-catalysed formation of free thiols in vWF” value (purified vWF [2])?
A: The value was “ablated”.

Q: For N[C@@H](CCC(=O)N[C@@H](CS)C(=O)NCC(=O)O)C(=O)O [GSH, reduced glutathione], which “effect on vWF collagen affinity” value (purified vWF [3]) is on record?
A: The value was “reduced the collagen affinity of vWF”.

Q: And the EC50 (purified vWF [3]; GSH alone, read-out: half-maximal effect on vWF collagen affinity)?
A: The EC50 was about 20 µM.

Q: And the EC50 (purified vWF [3]; GSH in the presence of PDI, read-out: half-maximal effect on vWF collagen affinity in the presence of PDI)?
A: The EC50 was about 20 µM.

Q: What about the “vWF depolymerization over that by BAECcm alone” value (plasma vWF; agarose gel electrophoresis) of the same compound?
A: The value was “small increase”.

Q: What about the “collagen affinity of vWF” value (plasma vWF; p<0.05) of the same compound?
A: The value was “significant reduction”.

Q: What about the “effect on average multimer size of purified vWF” value (from here on “effect … of purified vWF”) (purified vWF [4]) of the same compound?
A: Its value is “reduction of the average multimer size of vWF”.

Q: Which results are given for NC(=O)CI [IAM, iodoacetamide]?
A: effect on vWF depolymerizing activity of BAECcm [1, 5]: inactivated; effect on average multimer size of vWF (purified vWF [4]; incubation of vWF with IAM or NEM alone): did not have any discernible effect

Q: How did the “effect … of BAECcm” value [1, 5] turn out when CC(C)C[C@H](NC(=O)[C@@H](NC(=O)N[C@@H](Cc1ccccc1)C(=O)O)[C@@H]1CCN=C(N)N1)C(=O)N[C@H](C=O)Cc1ccccc1 [chymostatin] was run?
A: The value was “not inhibited”.

Q: How did the “effect … of BAECcm” value [1, 5] turn out when CC(=O)N[C@@H](CC(C)C)C(=O)N[C@@H](CC(C)C)C(=O)N[C@H](C=O)CCCNC(=N)N [leupeptin] was run?
A: The value was “not inhibited”.

Q: How did the “effect … of BAECcm” value [1, 5] turn out when CC(C)CC(=O)N[C@H](C(=O)N[C@H](C(=O)N[C@@H](CC(C)C)[C@@H](O)CC(=O)N[C@@H](C)C(=O)N[C@@H](CC(C)C)[C@@H](O)CC(=O)O)C(C)C)C(C)C [pepstatin] (Isovaleryl-VV[Sta]A[Sta]-OH) was run?
A: Its value is “not inhibited”.

Q: How did the “effect … of BAECcm” value [1, 5] turn out when CC(C)C[C@H](NP(=O)(O)O[C@@H]1O[C@@H](C)[C@H](O)[C@@H](O)[C@H]1O)C(=O)N[C@@H](Cc1c[nH]c2ccccc12)C(=O)O [phosphoramidon] was run?
A: The value was “not inhibited”.

Q: Which “effect on vWF collagen affinity” value (purified vWF [3]) does the source give for PDI: purified reductant here?
A: The value was “reduced vWF collagen affinity to the same extent as 20 μM GSH”.

Q: And the “effect … of purified vWF” value (purified vWF [4])?
A: Its value is “reduction of the average multimer size of vWF”.

Q: With aprotinin as the compound, how does the “effect … of BAECcm” value [1, 5] read?
A: Its value is “not inhibited”.

Q: Which “effect … of purified vWF” value (purified vWF [4]) does the source give for thioredoxin here?
A: The value was “reduction of the average multimer size of vWF”.
